Assay results from the kinase profiling compilation of Christmann-Franck et al. (2016).

How the values were obtained:
Test in all cases: radiometric filter-binding kinase assay
MAPK15 (human) = MAPK15 (human) (UniProt Q8TD08)
[1] = system: SGK1 (human), O00141 [S422D]
MARK1 (human) = MARK1 (human) (UniProt Q9P0L2)
PAK6 (human) = PAK6 (human) (UniProt Q9NQU5)
MAPK3 (human) = MAPK3 (human) (UniProt P27361)
CSNK1D (human) = CSNK1D (human) (UniProt P48730)
HIPK3 (human) = HIPK3 (human) (UniProt Q9H422)
RPS6KA3 KD1 KD2 (human) = RPS6KA3 KD1 KD2 (human) (UniProt P51812)
IGF1R (human) = IGF1R (human) (UniProt P08069)
CHEK1 (human) = CHEK1 (human) (UniProt O14757)
PIM3 (human) = PIM3 (human) (UniProt Q86V86)
CAMKK2 (human) = CAMKK2 (human) (UniProt Q96RR4)
[2] = system: AKT2 (human), P31751 [S474D]
NEK2 (human) = NEK2 (human) (UniProt P51955)
PKN2 (human) = PKN2 (human) (UniProt Q16513)
MAPK12 (human) = MAPK12 (human) (UniProt P53778)
PAK7 (human) = PAK7 (human) (UniProt Q9P286)
MST4 (human) = MST4 (human) (UniProt Q9P289)
RPS6KA5 KD1 KD2 (human) = RPS6KA5 KD1 KD2 (human) (UniProt O75582)
[3] = system: PAK2 (human), Q13177 [T402E]
MAPK14 (human) = MAPK14 (human) (UniProt Q16539)
IKBKE (human) = IKBKE (human) (UniProt Q14164)
PIM2 (human) = PIM2 (human) (UniProt Q9P1W9)
MARK2 (human) = MARK2 (human) (UniProt Q7KZI7)
SRPK1 (human) = SRPK1 (human) (UniProt Q96SB4)
DYRK1A (human) = DYRK1A (human) (UniProt Q13627)
EPHA4 (human) = EPHA4 (human) (UniProt P54764)
RIPK2 (human) = RIPK2 (human) (UniProt O43353)
NEK6 (human) = NEK6 (human) (UniProt Q9HC98)
IRAK4 (human) = IRAK4 (human) (UniProt Q9NWZ3)
MAPKAPK2 (human) = MAPKAPK2 (human) (UniProt P49137)
PAK4 (human) = PAK4 (human) (UniProt O96013)
PLK1 (human) = PLK1 (human) (UniProt P53350)
MAP3K7 TAB1 (human) = MAP3K7 TAB1 (human) (UniProt Q15750+O43318)
CLK2 (human) = CLK2 (human) (UniProt P49760)

Sequence of HIPK3 (human) (Q9H422 whole entry, looked up): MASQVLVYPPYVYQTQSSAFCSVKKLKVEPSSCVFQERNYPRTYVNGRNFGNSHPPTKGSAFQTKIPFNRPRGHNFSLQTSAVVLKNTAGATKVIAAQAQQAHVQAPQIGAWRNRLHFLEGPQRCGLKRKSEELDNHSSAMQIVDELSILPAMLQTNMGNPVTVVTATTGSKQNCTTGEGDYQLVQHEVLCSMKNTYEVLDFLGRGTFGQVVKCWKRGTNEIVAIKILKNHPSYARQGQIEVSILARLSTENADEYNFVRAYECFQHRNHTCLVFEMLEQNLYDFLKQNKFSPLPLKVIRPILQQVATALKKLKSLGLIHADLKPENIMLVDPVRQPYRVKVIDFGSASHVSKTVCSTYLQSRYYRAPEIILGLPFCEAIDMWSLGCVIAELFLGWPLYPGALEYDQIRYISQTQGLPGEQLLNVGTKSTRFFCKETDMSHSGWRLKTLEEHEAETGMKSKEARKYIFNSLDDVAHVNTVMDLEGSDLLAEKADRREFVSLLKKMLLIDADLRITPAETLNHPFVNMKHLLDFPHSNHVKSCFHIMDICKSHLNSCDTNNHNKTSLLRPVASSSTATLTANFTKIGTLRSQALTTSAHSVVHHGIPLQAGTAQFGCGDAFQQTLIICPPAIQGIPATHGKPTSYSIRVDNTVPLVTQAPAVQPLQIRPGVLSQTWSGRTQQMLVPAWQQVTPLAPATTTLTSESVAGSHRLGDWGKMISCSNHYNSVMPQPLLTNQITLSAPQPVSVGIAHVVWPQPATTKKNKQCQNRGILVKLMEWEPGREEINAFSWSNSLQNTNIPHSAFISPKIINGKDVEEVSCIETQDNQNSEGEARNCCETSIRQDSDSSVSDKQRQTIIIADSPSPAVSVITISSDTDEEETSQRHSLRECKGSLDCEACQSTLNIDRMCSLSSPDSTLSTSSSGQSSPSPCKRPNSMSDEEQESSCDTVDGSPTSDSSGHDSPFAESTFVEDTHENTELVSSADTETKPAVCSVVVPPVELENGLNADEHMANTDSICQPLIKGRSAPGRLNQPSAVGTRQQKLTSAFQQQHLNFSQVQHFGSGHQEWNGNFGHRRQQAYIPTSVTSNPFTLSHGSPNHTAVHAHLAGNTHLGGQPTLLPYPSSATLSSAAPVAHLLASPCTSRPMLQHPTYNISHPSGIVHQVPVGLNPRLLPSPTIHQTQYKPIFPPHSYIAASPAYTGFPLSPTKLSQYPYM
Sequence of CHEK1 (human) (O14757 whole entry, looked up): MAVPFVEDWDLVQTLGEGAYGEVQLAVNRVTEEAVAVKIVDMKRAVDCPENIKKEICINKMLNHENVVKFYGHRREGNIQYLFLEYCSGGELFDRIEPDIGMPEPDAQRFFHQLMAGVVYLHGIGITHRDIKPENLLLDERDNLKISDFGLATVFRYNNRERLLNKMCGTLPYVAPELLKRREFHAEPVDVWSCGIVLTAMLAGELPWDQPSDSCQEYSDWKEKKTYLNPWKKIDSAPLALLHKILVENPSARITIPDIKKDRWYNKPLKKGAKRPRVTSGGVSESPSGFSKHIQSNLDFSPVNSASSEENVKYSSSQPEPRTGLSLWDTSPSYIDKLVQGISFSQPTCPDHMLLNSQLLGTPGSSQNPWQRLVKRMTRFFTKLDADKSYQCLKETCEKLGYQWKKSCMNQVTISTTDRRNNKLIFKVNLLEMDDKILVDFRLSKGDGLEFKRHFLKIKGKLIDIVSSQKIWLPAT
Sequence of MAPK14 (human) (Q16539 whole entry, looked up): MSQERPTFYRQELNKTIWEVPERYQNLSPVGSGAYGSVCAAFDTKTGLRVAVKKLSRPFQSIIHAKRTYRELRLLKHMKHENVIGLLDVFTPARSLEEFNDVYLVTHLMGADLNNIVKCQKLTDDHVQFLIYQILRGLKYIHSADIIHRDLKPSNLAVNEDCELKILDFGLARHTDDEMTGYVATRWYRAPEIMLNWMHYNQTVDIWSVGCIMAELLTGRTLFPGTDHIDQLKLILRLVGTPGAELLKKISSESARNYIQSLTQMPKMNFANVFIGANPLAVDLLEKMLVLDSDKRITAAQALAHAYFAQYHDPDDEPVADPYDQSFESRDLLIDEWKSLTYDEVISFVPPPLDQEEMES
Sequence of MARK2 (human) (Q7KZI7 whole entry, looked up): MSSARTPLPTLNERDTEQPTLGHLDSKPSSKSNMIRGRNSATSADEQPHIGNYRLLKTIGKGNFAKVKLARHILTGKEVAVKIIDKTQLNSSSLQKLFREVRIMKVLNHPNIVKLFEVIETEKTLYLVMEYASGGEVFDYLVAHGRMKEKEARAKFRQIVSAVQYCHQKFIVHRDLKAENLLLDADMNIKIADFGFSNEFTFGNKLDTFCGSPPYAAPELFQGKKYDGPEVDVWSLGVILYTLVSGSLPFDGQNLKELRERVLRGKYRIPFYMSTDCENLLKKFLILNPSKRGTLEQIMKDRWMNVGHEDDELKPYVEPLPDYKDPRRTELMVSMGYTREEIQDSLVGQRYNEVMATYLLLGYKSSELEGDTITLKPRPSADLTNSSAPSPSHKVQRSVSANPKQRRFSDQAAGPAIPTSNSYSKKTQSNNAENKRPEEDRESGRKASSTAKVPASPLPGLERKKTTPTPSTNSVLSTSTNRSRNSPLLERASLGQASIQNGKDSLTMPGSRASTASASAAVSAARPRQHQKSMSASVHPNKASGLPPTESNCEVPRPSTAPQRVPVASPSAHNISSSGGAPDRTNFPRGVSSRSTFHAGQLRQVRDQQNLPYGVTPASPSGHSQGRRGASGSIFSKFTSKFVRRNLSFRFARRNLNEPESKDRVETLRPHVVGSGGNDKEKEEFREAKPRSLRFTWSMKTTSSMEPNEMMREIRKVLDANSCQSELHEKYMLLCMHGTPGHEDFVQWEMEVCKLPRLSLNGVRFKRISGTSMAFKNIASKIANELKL
Sequence of IGF1R (human) (P08069 whole entry, looked up): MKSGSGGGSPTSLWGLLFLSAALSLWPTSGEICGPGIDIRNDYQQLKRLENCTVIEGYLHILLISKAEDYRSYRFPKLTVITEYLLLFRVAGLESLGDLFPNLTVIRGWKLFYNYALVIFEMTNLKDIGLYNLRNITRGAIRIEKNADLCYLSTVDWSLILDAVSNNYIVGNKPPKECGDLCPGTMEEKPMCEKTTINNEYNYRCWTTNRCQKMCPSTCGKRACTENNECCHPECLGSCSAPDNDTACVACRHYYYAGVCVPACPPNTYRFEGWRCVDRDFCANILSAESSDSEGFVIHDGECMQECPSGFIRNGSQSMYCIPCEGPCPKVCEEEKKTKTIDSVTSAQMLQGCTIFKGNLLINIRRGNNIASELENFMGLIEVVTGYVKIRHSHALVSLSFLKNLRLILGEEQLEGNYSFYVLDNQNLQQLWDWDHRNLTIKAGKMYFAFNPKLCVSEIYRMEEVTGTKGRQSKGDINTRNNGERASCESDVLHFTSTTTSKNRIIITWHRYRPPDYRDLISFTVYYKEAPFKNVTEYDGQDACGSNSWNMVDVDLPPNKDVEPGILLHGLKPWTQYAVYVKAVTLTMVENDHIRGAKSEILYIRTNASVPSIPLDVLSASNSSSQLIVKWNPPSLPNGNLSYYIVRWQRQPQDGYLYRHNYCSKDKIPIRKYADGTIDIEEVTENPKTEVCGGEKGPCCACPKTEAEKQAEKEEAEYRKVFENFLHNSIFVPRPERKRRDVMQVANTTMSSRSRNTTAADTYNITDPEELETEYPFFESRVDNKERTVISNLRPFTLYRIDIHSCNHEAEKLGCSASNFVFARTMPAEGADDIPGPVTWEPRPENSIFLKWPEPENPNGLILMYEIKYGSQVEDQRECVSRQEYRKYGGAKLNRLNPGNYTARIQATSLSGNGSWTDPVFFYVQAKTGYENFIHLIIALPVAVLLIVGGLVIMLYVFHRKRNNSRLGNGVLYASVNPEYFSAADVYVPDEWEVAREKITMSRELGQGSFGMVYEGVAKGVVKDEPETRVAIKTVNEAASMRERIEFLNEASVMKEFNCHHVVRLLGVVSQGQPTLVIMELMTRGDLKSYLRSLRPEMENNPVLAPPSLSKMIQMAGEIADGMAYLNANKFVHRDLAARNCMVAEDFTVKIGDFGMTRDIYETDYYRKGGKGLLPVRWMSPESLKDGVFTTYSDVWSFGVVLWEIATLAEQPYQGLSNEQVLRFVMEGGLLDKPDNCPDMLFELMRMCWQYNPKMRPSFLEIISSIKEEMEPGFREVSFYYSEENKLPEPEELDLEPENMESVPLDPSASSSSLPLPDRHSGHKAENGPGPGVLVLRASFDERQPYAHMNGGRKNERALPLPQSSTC
Sequence of PAK4 (human) (O96013 whole entry, looked up): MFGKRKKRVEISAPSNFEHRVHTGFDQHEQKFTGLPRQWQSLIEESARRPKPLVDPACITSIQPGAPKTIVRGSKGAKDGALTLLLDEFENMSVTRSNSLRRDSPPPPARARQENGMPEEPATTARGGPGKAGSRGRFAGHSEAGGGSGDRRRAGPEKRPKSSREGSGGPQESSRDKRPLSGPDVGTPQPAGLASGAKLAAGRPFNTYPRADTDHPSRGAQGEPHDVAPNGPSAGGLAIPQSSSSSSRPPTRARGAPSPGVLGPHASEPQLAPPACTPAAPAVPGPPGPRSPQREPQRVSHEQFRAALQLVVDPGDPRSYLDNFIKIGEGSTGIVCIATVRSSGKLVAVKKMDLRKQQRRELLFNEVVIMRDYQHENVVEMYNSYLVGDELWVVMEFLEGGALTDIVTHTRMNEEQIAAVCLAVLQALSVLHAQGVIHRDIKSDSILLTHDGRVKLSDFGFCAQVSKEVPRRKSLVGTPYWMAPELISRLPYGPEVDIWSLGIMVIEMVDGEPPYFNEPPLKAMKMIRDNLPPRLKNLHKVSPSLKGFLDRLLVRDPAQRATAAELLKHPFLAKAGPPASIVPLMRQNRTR

C=CC(=O)N1CCC[C@@H](n2nc(-c3ccc(Oc4ccccc4)cc3)c3c(N)ncnc32)C1
residual activity (MAPK15 (human); compound 0.1 µM): 85%
residual activity (MAPK15 (human); compound 1.0 µM): 98%
residual activity (MAPK15 (human); compound 10.0 µM): 74%
residual activity ([1]; compound 0.1 µM): 95%
residual activity ([1]; compound 1.0 µM): 107%
residual activity ([1]; compound 10.0 µM): 84%
residual activity (MARK1 (human); compound 0.1 µM): 101%
residual activity (MARK1 (human); compound 1.0 µM): 103%
residual activity (MARK1 (human); compound 10.0 µM): 88%
residual activity (PAK6 (human); compound 0.1 µM): 95%
residual activity (PAK6 (human); compound 1.0 µM): 97%
residual activity (PAK6 (human); compound 10.0 µM): 82%
residual activity (MAPK3 (human); compound 0.1 µM): 83%
residual activity (MAPK3 (human); compound 10.0 µM): 84%
residual activity (CSNK1D (human); compound 0.1 µM): 98%
residual activity (CSNK1D (human); compound 1.0 µM): 111%
residual activity (CSNK1D (human); compound 10.0 µM): 115%
residual activity (HIPK3 (human); compound 0.1 µM): 100%
residual activity (HIPK3 (human); compound 1.0 µM): 123%
residual activity (HIPK3 (human); compound 10.0 µM): 110%
residual activity (RPS6KA3 KD1 KD2 (human); compound 0.1 µM): 103%
residual activity (RPS6KA3 KD1 KD2 (human); compound 1.0 µM): 106%
residual activity (RPS6KA3 KD1 KD2 (human); compound 10.0 µM): 68%
residual activity (IGF1R (human); compound 0.1 µM): 95%
residual activity (IGF1R (human); compound 1.0 µM): 93%
residual activity (IGF1R (human); compound 10.0 µM): 63%
residual activity (CHEK1 (human); compound 0.1 µM): 76%
residual activity (CHEK1 (human); compound 1.0 µM): 93%
residual activity (CHEK1 (human); compound 10.0 µM): 77%
residual activity (PIM3 (human); compound 0.1 µM): 94%
residual activity (PIM3 (human); compound 1.0 µM): 96%
residual activity (PIM3 (human); compound 10.0 µM): 88%
residual activity (CAMKK2 (human); compound 0.1 µM): 86%
residual activity (CAMKK2 (human); compound 1.0 µM): 109%
residual activity (CAMKK2 (human); compound 10.0 µM): 80%
residual activity ([2]; compound 0.1 µM): 80%
residual activity ([2]; compound 1.0 µM): 93%
residual activity ([2]; compound 10.0 µM): 71%
residual activity (NEK2 (human); compound 0.1 µM): 93%
residual activity (NEK2 (human); compound 1.0 µM): 107%
residual activity (NEK2 (human); compound 10.0 µM): 35%
residual activity (PKN2 (human); compound 0.1 µM): 109%
residual activity (PKN2 (human); compound 1.0 µM): 100%
residual activity (PKN2 (human); compound 10.0 µM): 90%
residual activity (MAPK12 (human); compound 0.1 µM): 89%
residual activity (MAPK12 (human); compound 1.0 µM): 112%
residual activity (PAK7 (human); compound 0.1 µM): 93%
residual activity (PAK7 (human); compound 1.0 µM): 97%
residual activity (PAK7 (human); compound 10.0 µM): 50%
residual activity (MST4 (human); compound 0.1 µM): 100%
residual activity (MST4 (human); compound 1.0 µM): 73%
residual activity (MST4 (human); compound 10.0 µM): 27%
residual activity (RPS6KA5 KD1 KD2 (human); compound 0.1 µM): 94%
residual activity (RPS6KA5 KD1 KD2 (human); compound 1.0 µM): 101%
residual activity (RPS6KA5 KD1 KD2 (human); compound 10.0 µM): 55%
residual activity ([3]; compound 0.1 µM): 87%
residual activity ([3]; compound 1.0 µM): 72%
residual activity ([3]; compound 10.0 µM): 55%
residual activity (MAPK14 (human); compound 0.1 µM): 99%
residual activity (MAPK14 (human); compound 1.0 µM): 103%
residual activity (MAPK14 (human); compound 10.0 µM): 101%
residual activity (IKBKE (human); compound 0.1 µM): 100%
residual activity (IKBKE (human); compound 1.0 µM): 95%
residual activity (IKBKE (human); compound 10.0 µM): 66%
residual activity (PIM2 (human); compound 0.1 µM): 99%
residual activity (PIM2 (human); compound 1.0 µM): 100%
residual activity (PIM2 (human); compound 10.0 µM): 97%
residual activity (MARK2 (human); compound 0.1 µM): 88%
residual activity (MARK2 (human); compound 1.0 µM): 102%
residual activity (MARK2 (human); compound 10.0 µM): 82%
residual activity (SRPK1 (human); compound 0.1 µM): 100%
residual activity (SRPK1 (human); compound 1.0 µM): 115%
residual activity (SRPK1 (human); compound 10.0 µM): 99%
residual activity (DYRK1A (human); compound 0.1 µM): 112%
residual activity (DYRK1A (human); compound 1.0 µM): 105%
residual activity (DYRK1A (human); compound 10.0 µM): 87%
residual activity (EPHA4 (human); compound 1.0 µM): 92%
residual activity (EPHA4 (human); compound 10.0 µM): 45%
residual activity (RIPK2 (human); compound 0.1 µM): 21%
residual activity (RIPK2 (human); compound 1.0 µM): 5%
residual activity (RIPK2 (human); compound 10.0 µM): 2%
residual activity (NEK6 (human); compound 0.1 µM): 76%
residual activity (NEK6 (human); compound 1.0 µM): 99%
residual activity (NEK6 (human); compound 10.0 µM): 93%
residual activity (IRAK4 (human); compound 0.1 µM): 103%
residual activity (IRAK4 (human); compound 1.0 µM): 102%
residual activity (IRAK4 (human); compound 10.0 µM): 86%
residual activity (MAPKAPK2 (human); compound 0.1 µM): 88%
residual activity (MAPKAPK2 (human); compound 1.0 µM): 95%
residual activity (MAPKAPK2 (human); compound 10.0 µM): 90%
residual activity (PAK4 (human); compound 0.1 µM): 93%
residual activity (PAK4 (human); compound 1.0 µM): 85%
residual activity (PAK4 (human); compound 10.0 µM): 42%
residual activity (PLK1 (human); compound 0.1 µM): 88%
residual activity (PLK1 (human); compound 1.0 µM): 95%
residual activity (PLK1 (human); compound 10.0 µM): 76%
residual activity (MAP3K7 TAB1 (human); compound 0.1 µM): 102%
residual activity (MAP3K7 TAB1 (human); compound 1.0 µM): 106%
residual activity (MAP3K7 TAB1 (human); compound 10.0 µM): 66%

Cc1ccc(=O)n(-c2ccccc2)c1
residual activity (CLK2 (human); compound 1.0 µM): 120%
residual activity (CLK2 (human); compound 10.0 µM): 112%
residual activity (MAPK15 (human); compound 1.0 µM): 95%
residual activity (MAPK15 (human); compound 10.0 µM): 86%
residual activity ([1]; compound 1.0 µM): 113%
residual activity ([1]; compound 10.0 µM): 100%
residual activity (MARK1 (human); compound 1.0 µM): 99%
residual activity (MARK1 (human); compound 10.0 µM): 98%
residual activity (PAK6 (human); compound 1.0 µM): 106%
residual activity (PAK6 (human); compound 10.0 µM): 96%
residual activity (MAPK3 (human); compound 1.0 µM): 125%
residual activity (MAPK3 (human); compound 10.0 µM): 115%
residual activity (CSNK1D (human); compound 1.0 µM): 97%
residual activity (CSNK1D (human); compound 10.0 µM): 102%
residual activity (HIPK3 (human); compound 1.0 µM): 100%
residual activity (HIPK3 (human); compound 10.0 µM): 96%
residual activity (RPS6KA3 KD1 KD2 (human); compound 1.0 µM): 98%
residual activity (RPS6KA3 KD1 KD2 (human); compound 10.0 µM): 94%
residual activity (IGF1R (human); compound 1.0 µM): 105%
residual activity (IGF1R (human); compound 10.0 µM): 102%
residual activity (CHEK1 (human); compound 1.0 µM): 97%
residual activity (CHEK1 (human); compound 10.0 µM): 90%
residual activity (PIM3 (human); compound 1.0 µM): 111%
residual activity (PIM3 (human); compound 10.0 µM): 95%
residual activity (CAMKK2 (human); compound 1.0 µM): 97%
residual activity (CAMKK2 (human); compound 10.0 µM): 108%
residual activity ([2]; compound 1.0 µM): 99%
residual activity ([2]; compound 10.0 µM): 91%
residual activity (NEK2 (human); compound 1.0 µM): 107%
residual activity (NEK2 (human); compound 10.0 µM): 95%
residual activity (PKN2 (human); compound 1.0 µM): 121%
residual activity (PKN2 (human); compound 10.0 µM): 91%
residual activity (MAPK12 (human); compound 1.0 µM): 109%
residual activity (MAPK12 (human); compound 10.0 µM): 96%
residual activity (PAK7 (human); compound 1.0 µM): 88%
residual activity (PAK7 (human); compound 10.0 µM): 96%
residual activity (MST4 (human); compound 1.0 µM): 105%
residual activity (MST4 (human); compound 10.0 µM): 102%
residual activity (RPS6KA5 KD1 KD2 (human); compound 1.0 µM): 98%
residual activity (RPS6KA5 KD1 KD2 (human); compound 10.0 µM): 95%
residual activity ([3]; compound 1.0 µM): 101%
residual activity ([3]; compound 10.0 µM): 100%
residual activity (MAPK14 (human); compound 1.0 µM): 102%
residual activity (MAPK14 (human); compound 10.0 µM): 83%
residual activity (IKBKE (human); compound 1.0 µM): 104%
residual activity (IKBKE (human); compound 10.0 µM): 99%
residual activity (PIM2 (human); compound 1.0 µM): 118%
residual activity (PIM2 (human); compound 10.0 µM): 96%
residual activity (MARK2 (human); compound 1.0 µM): 104%
residual activity (MARK2 (human); compound 10.0 µM): 102%
residual activity (SRPK1 (human); compound 1.0 µM): 95%
residual activity (SRPK1 (human); compound 10.0 µM): 89%
residual activity (DYRK1A (human); compound 1.0 µM): 103%
residual activity (DYRK1A (human); compound 10.0 µM): 91%
residual activity (EPHA4 (human); compound 1.0 µM): 106%
residual activity (EPHA4 (human); compound 10.0 µM): 99%
residual activity (RIPK2 (human); compound 1.0 µM): 86%
residual activity (RIPK2 (human); compound 10.0 µM): 87%
residual activity (NEK6 (human); compound 1.0 µM): 99%
residual activity (NEK6 (human); compound 10.0 µM): 91%
residual activity (IRAK4 (human); compound 1.0 µM): 83%
residual activity (IRAK4 (human); compound 10.0 µM): 95%
residual activity (MAPKAPK2 (human); compound 1.0 µM): 108%
residual activity (MAPKAPK2 (human); compound 10.0 µM): 93%
residual activity (PAK4 (human); compound 1.0 µM): 101%
residual activity (PAK4 (human); compound 10.0 µM): 89%
residual activity (PLK1 (human); compound 1.0 µM): 96%
residual activity (PLK1 (human); compound 10.0 µM): 82%
